Data taken from BindingDB's records for doi:10.1021/bi200655g (Glaxosmithkline, 2011).
pKi: −log10 of the molar value.

These compounds were tested against T1, Peptide deformylase (Streptococcus pneumoniae (strain ATCC BAA-255 / R6), UniProt Q8DP79) (assay: Binding Assay).
T1 sequence (Q8DP79 whole entry): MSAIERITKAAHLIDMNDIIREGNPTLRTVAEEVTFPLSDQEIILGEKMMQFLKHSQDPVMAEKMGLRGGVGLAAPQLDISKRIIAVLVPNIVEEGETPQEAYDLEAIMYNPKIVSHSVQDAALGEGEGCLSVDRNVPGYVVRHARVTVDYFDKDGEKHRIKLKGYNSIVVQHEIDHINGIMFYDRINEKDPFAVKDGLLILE
Excerpt: Binding assay using PDF inhibitors.
`CCCCC[C@H](CN(O)C=O)C(=O)NNc1nccc(C(F)(F)F)n1` [PDF inhibitor, compound 1] showed a pKi of 5.20.
`CNC(=O)c1cccc(C)c1Nc1nc(N2CCN(c3ccccc3Cl)CC2)nc(N2CSC[C@H]2C(=O)NCC(=O)NO)n1` [PDF inhibitor, compound 2] was tested, and the pKi was 6.48.
Work on `O=CC(O)CCNC(=O)c1cccc(Cl)c1Cl` (stereo unspecified) [PDF inhibitor, compound 4] yielded a pKi of 4.59.
`CNC(=O)c1cccc(C)c1Nc1nc(N2CCN(c3ccccc3Cl)CC2)nc(N2CSC[C@H]2COCC(=O)NO)n1` [PDF inhibitor, compound 6] was tested, and the pKi was 6.67.
Work on `Cc1ccccc1Nc1nc(N2CCN(c3ccccc3Cl)CC2)nc(N2CSC[C@H]2C(=O)NCC(=O)NO)n1` [PDF inhibitor, compound 7] yielded a pKi of 6.19.
In the case of `Cc1ccccc1Nc1nc(N2CCN(c3ccccc3Cl)CC2)nc(N2CSC[C@H]2COCC(=O)NO)n1` [PDF inhibitor, compound 8], the pKi was 7.27.
